Key:
[1] = system: B10.PL mice with experimental autoimmune encephalomyelitis (EAE); assay: MBP induced EAE in B10.PL mice; format: in vivo, mouse
[2] = system: SJL/J mice with experimental autoimmune encephalomyelitis (EAE); assay: PLP139-151 induced EAE in SJL/J mice, oral treatment; format: in vivo; details: for EAE incidence / mean cumulative EAE score versus vehicle / mean cumulative EAE score: day 0-42; for mean cumulative EAE score: vehicle 17.4±5.0; for clinical EAE score in second phase (relapse): day 26 until day 42; for mean maximal clinical (disability) score: vehicle 1.8±0.3; for mean day of onset of EAE: vehicle day 12
[3] = system: ovariectomized adult rats; assay: Vaginal cornification bioassay in ovariectomized rats; format: in vivo, rat; details: for Number of Rats Exhibiting Estrogenic Response/Number of Rats Treated: sc, Day 7
Excerpt: Uterine weight increase in the rat is more commonly used as a measure of estrogenicity. […] In the early 1920s it was discovered that follicular fluid from the pig ovary contained a factor(s) that caused cornification/keratinization of the vaginal epithelium in the rat (Allen and Doisy, 1923, JAMA, 81, 819-821; Allen and Doisy, 1924, Am. J. Physiol., 69, 577-588). The so-called vaginal cornification response in rats subsequently provided a bioassay for testing estrogenicity. Vaginal epithelial cornification/keratinization in ovariectomized rats can be produced only by compounds considered to be true estrogens (Jones et al, 1973, Fert. Steril. 24, 284-291). […] Adult intact female CD rats were ovariectomized to induce estrogen deficiency. […] Castrate vaginal smears are indicative that complete ovariectomy was achieved. Treatment commenced following completion of the 7 days of smearing (day 0=first day of dosing). Animals were dosed, once daily for 7 consecutive days. Daily vaginal lavages continued to be obtained for 7 days after dosing was initiated in order to detect vaginal cornification, as an indication of an estrogenic response. A drop of vaginal washings was placed on a glass slide and examined by light microscopy to detect the presence or absence of cornified epithelial cells. Vaginal lavages were obtained prior to dosing on days 0-6 and prior to necropsy on day 7. The vaginal cornification bioassay was performed in order to determine the estrogenic profile of E4 when given subcutaneously (sc) to ovariectomized adult rats. E2 was used as a positive control. The vehicle (10% ethanol/sesame oil) served as the negative control. Steroids were dissolved in absolute ethanol and then brought to the final concentration with sesame oil (10% ethanol in sesame oil). […] The vaginal cornification bioassay was performed in order to determine the estrogenic profile of E4 when given orally (po) to ovariectomized adult rats. EE was used as a positive control. The vehicle (10% ethanol/sesame oil) served as the negative control. […]

[4] = ovariectomized female B10.PL mice, sc and oral 0.1-3.0 mg/kg/day, 40 days

C[C@]12CC[C@@H]3c4ccc(O)cc4CC[C@H]3[C@@H]1[C@@H](O)[C@@H](O)[C@@H]2O [E4, 1,3,5 (10)-estratrien-3,15α,16α,17β-tetrol]
symptoms and severity of EAE ([1]; non-castrated female and male B10.PL mice, daily sc and/or oral): dose-dependently alleviate symptoms and severity of EAE
number of afflicted animals and/or severity of EAE symptoms [1, 4]: dose-dependently reduced
onset of EAE disease symptoms [1, 4]: dose-dependent effects in delaying the onset of EAE disease symptoms
disease onset of EAE versus vehicle ([2]; oral 0.1 mg/kg/day): trend of delayed disease onset as compared to vehicle-treated mice, but this was not statistically significant
mean maximal clinical score versus vehicle ([2]; oral 0.1 mg/kg/day): did not show statistically significant differences
EAE incidence ([2]; oral 0.1 mg/kg/day): 70%
mean cumulative EAE score versus vehicle ([2]; oral 0.1 mg/kg/day): did not show statistically significant differences
disease onset of EAE versus vehicle ([2]; oral 0.3 mg/kg/day): trend of delayed disease onset as compared to vehicle-treated mice, but this was not statistically significant
mean maximal clinical score versus vehicle ([2]; oral 0.3 mg/kg/day): did not show statistically significant differences
EAE incidence ([2]; oral 0.3 mg/kg/day): 80%
mean cumulative EAE score versus vehicle ([2]; oral 0.3 mg/kg/day): did not show statistically significant differences
EAE incidence ([2]; oral 1 mg/kg/day): 33%
mean cumulative EAE score ([2]; oral 1 mg/kg/day): 3.9±1.8
clinical EAE score in second phase (relapse) ([2]; oral 1 mg/kg/day): little evidence of disease activity
mean maximal clinical (disability) score ([2]; oral 1 mg/kg/day): 0.9±0.3
mean day of onset of EAE ([2]; oral 1 mg/kg/day): 14.7 days
EAE incidence ([2]; oral 3 mg/kg/day): 40%
mean cumulative EAE score ([2]; oral 3 mg/kg/day): 5.8±2.9
clinical EAE score in second phase (relapse) ([2]; oral 3 mg/kg/day): little evidence of disease activity
mean maximal clinical (disability) score ([2]; oral 3 mg/kg/day): 0.8±0.3
mean day of onset of EAE ([2]; oral 3 mg/kg/day): 15.7 days
side-effects (clinical symptoms other than EAE) ([2]; oral once daily 0.1-3 mg/kg, 42 days): did not induce any significant side-effects
onset of vaginal cornification, po versus sc ([3]; amount of animals responding at days 1-3, even at low doses (e.g. 0.1 mg/kg/day)): faster in po-treated than in sc-treated animals
Number of Rats Exhibiting Estrogenic Response/Number of Rats Treated ([3]; 1.0 mg/kg/day, 1 mg/kg/day): all rats
Number of Rats Exhibiting Estrogenic Response/Number of Rats Treated ([3]; 3.0 mg/kg/day, 3 mg/kg/day): all rats
